Activity calls are given as the source filed them. The calls are words filed in the database; no cut-off is given here.

Usually IC50 stands for the point on the concentration scale where inhibition reaches its midpoint.

Test system in one series: not listed separately
The series can be described thus: Inhibition of soybean 15-LOX incubated for 4 mins before linoleic acid substrate addition by spectrophotometry. More on the design: species or system Glycine max.
Conditions: not given
With `Brc1ccccc1-c1nc2scc(-c3ccccc3)n2c1NC1CCCCC1`, the IC50 result is listed as “Not Active”.

Staying with this series, now noted: read-out: IC50.
Take `CC(C)(C)Nc1c(-c2ccc(Cl)cc2)nc2scc(-c3ccccc3)n12`: the IC50 came out at 33 µM.
The same measure, in the same setting: under `Fc1ccccc1-c1nc2scc(-c3ccccc3)n2c1NC1CCCCC1` stands 35.4 µM.
For the compound `COc1ccc(-c2csc3nc(-c4ccccc4)c(NC(C)(C)CC(C)(C)C)n23)cc1`, the IC50 came to 11.5 µM.
Regarding `Clc1ccc(-c2nc3scc(-c4ccc(Br)cc4)n3c2NC2CCCCC2)cc1`, the IC50 stood at 52 µM.
Same read-out and setting: under `COc1ccc(-c2nc3scc(-c4ccccc4)n3c2NC(C)(C)C)cc1` stands 58 µM; under `CC(C)(C)CC(C)(C)Nc1c(-c2ccc(Cl)cc2)nc2scc(-c3ccc(Br)cc3)n12`, 20.7 µM.
The same measure, in the same setting: the same measure for `CC(C)(C)CC(C)(C)Nc1c(-c2ccc([N+](=O)[O-])cc2)nc2scc(-c3ccc(Br)cc3)n12`: 32 µM; for `O=c1c(O)c(-c2ccc(O)c(O)c2)oc2cc(O)cc(O)c12` [QUERCETIN]: 23 µM; for `COc1ccc(-c2nc3scc(-c4ccccc4)n3c2NC2CCCCC2)cc1`: 765 µM.
As to `CC(C)(C)CC(C)(C)Nc1c(-c2ccccc2[N+](=O)[O-])nc2scc(-c3ccccc3)n12`, the IC50 amounted to 70 µM.
Consider `O=[N+]([O-])c1ccccc1-c1nc2scc(-c3ccc(Br)cc3)n2c1NC1CCCCC1`, for which the IC50 came out at 170 µM.
Still for that read-out and setting: under `Cc1ccc(-c2nc3scc(-c4ccccc4)n3c2NC(C)(C)C)cc1` stands 35 µM; under `O=[N+]([O-])c1ccc(-c2nc3scc(-c4ccccc4)n3c2NC2CCCCC2)cc1`, 737 µM; under `CC(C)(C)Nc1c(-c2ccc([N+](=O)[O-])cc2)nc2scc(-c3ccccc3)n12`, 45 µM.

Test system in the next series: not listed separately
The series can be described thus: Toxicity in rat PC12 cells at 1 to 10 uM after 24 hrs by MTT assay. The series is classed as cell-based. The settings on record: pc-12, 24 h. A general note: Tetrazolium dyes change colour on reduction, which living cells bring about.
In the case of `COc1ccc(-c2csc3nc(-c4ccccc4)c(NC(C)(C)CC(C)(C)C)n23)cc1`, the Activity entry is given as “Non-toxic”.

The test system of another series is PC-12. Description: Cytoprotective activity against rat PC12 cells assessed as protection against H2O2-induced cell death at 1 to 10 uM pre-treated 3 hrs before H2O2 addition and measured 24 hrs post H2O2 challenge by MTT assay. The series is classed as functional, cell-based.
Conditions: not given
Take `COc1ccc(-c2csc3nc(-c4ccccc4)c(NC(C)(C)CC(C)(C)C)n23)cc1`: the result was Active.

(Values after ChEMBL document CHEMBL3352422, “Imidazo[2,1-b]thiazole derivatives as new inhibitors of 15-lipoxygenase” (Eur J Med Chem, 2014).)
